According to US8309058B2, “Method for obtaining highly luminescent lanthanide complexes” (Commissariat a l'Energie Atomique, priority 2005, dated 2012):
Read-outs that look alike come from different tables or passages of the source. Values belong to the compound of their own block, whether it stands above or below them.

Columns and labels:
[1] = potentiometric titration: de-protonation constants of the ligand; assay type: physicochemical; details: 25.0° C., μ=0.1 M KCl, listed as H6tpaen
Source text: Besides, five de-protonation constants [pKa1=2.8 (1), pKa22=3.2 (1), pKa3=3.9 (2), pKa4=5.1 (1) and pKa5=7.8 (1)] may be determined for the ligand H6tpaen by potentiometric titration as well the stability constants of the corresponding complexes of Eu^III and of CaII [log βEuL=15.3(3) for the complex of Eu^III and log βCaL=8.5 (5)].
For potentiometric titration, the solutions of the complex of Eu(III) may be prepared by dissolution of a determined amount of EuCI3.6H2O in water. The de-protonation constants of H6tpaen are given by Kai=[H6-iL]^2-1/[H5−iL]^1-i[H]^+, and as already mentioned previously, the values obtained are pKa1=2.8(1), pKa2=3.2(1), pKa3=3.9(2), pKa44=5.1(1) and pKa5=7.8(1).
The solutions of Ca(II) could be prepared by dissolution of CaCI2 in water. The exact concentration of the ion Ca^2+ can be determined by colorimetric titration at a pH 12.5 using as a reference a solution of H2Na2edta and calgonite as an indicator. 20 mL of a solution of H4tpaen (3,10−^4 M), acidified (pH˜2.5) 1:1 Ln:mixture of ligands ([L] 3.10−^4 M), acidified (pH˜2.5) 1:1 Ca:mixture of ligands ([L] 7.10−^5M) are titrated in a cell with a thermostat (25.0° C.+/−0.1° C.) under Argon after addition of a solution of KOH 0.1 M.
The ionic load was determined with KCl (μ=00.1 M). The titrations have been conducted with a Metrohm 751 GPD Titrino potentiometer fitted with a glass pH electrode. The electrode system was calibrated before each measurement.
The electromotive load is given by the equation E=E°+sp[H^+] wherein E° and s are determined by titration of a known amount de HCl with 0.1 M KOH at μ=0.1 M (KCl), using the zone of the acid for the titration. The value used for the ionic product of water was pKw=13.77. More than 50 data points have been collected for each experiment.

[2] = potentiometric titration: stability of the Eu(III) complex; assay type: physicochemical
Source text: For potentiometric titration, the solutions of the complex of Eu(III) may be prepared by dissolution of a determined amount of EuCI3.6H2O in water. […] The exact concentration of the ion Eu^3+ could be determined by colorimetric titration in an acetate buffer (pH=4.5), using as a reference a solution of […] orange xylenol as an indicator. The solutions of Ca(II) could be prepared by dissolution of CaCI2 in water. The exact concentration of the ion Ca^2+ can be determined by colorimetric titration at a pH 12.5 using as a reference a solution of […] calgonite as an indicator. 20 mL of a solution of […] (3,10-^4 M), acidified (pH 2.5) 1:1 Ln:mixture of ligands ([L] 3.10-^4 M), acidified (pH 2.5) 1:1 Ca:mixture of ligands ([L] 7.10-^5M) are titrated in a cell with a thermostat (25.0° C.+/-0.1° C.) under Argon after addition of a solution of KOH 0.1 M. The ionic load was determined with KCl (μ=00.1 M). The titrations have been conducted with a Metrohm 751 GPD Titrino potentiometer fitted with a glass pH electrode. The electrode system was calibrated before each measurement. The electromotive load is given by the equation E=E°+sp[H^+] wherein E° and s are determined by titration of a known amount de HCl with 0.1 M KOH at μ=0.1 M (KCl), using the zone of the acid for the titration. […] More than 50 data points have been collected for each experiment.

[3] = potentiometric titration: stability of the Ca(II) complex; assay type: physicochemical
Description: The solutions of Ca(II) could be prepared by dissolution of CaCI2 in water. The exact concentration of the ion Ca^2+ can be determined by colorimetric titration at a pH 12.5 using as a reference a solution of […] calgonite as an indicator. 20 mL of a solution of […] (3,10-^4 M), acidified (pH 2.5) 1:1 Ln:mixture of ligands ([L] 3.10-^4 M), acidified (pH 2.5) 1:1 Ca:mixture of ligands ([L] 7.10-^5M) are titrated in a cell with a thermostat (25.0° C.+/-0.1° C.) under Argon after addition of a solution of KOH 0.1 M. The ionic load was determined with KCl (μ=00.1 M). The titrations have been conducted with a Metrohm 751 GPD Titrino potentiometer fitted with a glass pH electrode. The electrode system was calibrated before each measurement. The electromotive load is given by the equation E=E°+sp[H^+] wherein E° and s are determined by titration of a known amount de HCl with 0.1 M KOH at μ=0.1 M (KCl), using the zone of the acid for the titration. […] More than 50 data points have been collected for each experiment.

[4] = stability of the Gd complex (pGd); assay type: physicochemical; details: pH 7.4, [M]total=1 μM, [ligand]total=10 μM
[5] = absorption / excitation spectra; assay type: physicochemical
Source text: (full line) and [Tb(tpaen)] (dotted line) after excitation of the ligand at 274 nm.
An efficient energy transfer from the ligand to the metal is put forward by the resemblance between the excitation and absorption spectra of the Europium and Terbium complexes.

[6] = cited from earlier work
[7] = cited from earlier work; remark: listed apart in the source
[8] = pH 7.4, [M]total=1 μM, [ligand]total=10 μM

de-protonation constant pKa1 [1]: 2.8 (1) | de-protonation constant pKa2 [1]: 3.2 (1) | de-protonation constant pKa3 [1]: 3.9 (2) | de-protonation constant pKa4 [1]: 5.1 (1) | de-protonation constant pKa5 [1]: 7.8 (1) | pEu (−log [M]free) [2, 8]: 15.7 | pCa (−log [M]free) [3, 8]: 8.5 | pGd (−log [M]free) [4]: 15.0 | λexc [5]: 270 nm | ε ([5]; at λexc): 15800 M⁻¹ cm⁻¹
Compound: O=C(O)c1cccc(CN(CCN(Cc2cccc(C(=O)O)n2)Cc2cccc(C(=O)O)n2)Cc2cccc(C(=O)O)n2)n1 [tpaen, N,N,N′,N′-tetrakis[(6-carboxypyridine-2-yle)methyl]-ethylene diamine]
selectivity for Europium with respect to calcium ([2]; from pEu versus pCa): good selectivity regarding Europium with respect to calcium

Compound: O=C(O)c1ccccc1C1=c2cc3c4c(c2Oc2c1cc1c5c2CCCN5CCC1)CCC[N+]=4CCC3.[Cl-] [rhodamine 101]
Qabs of the standard ([6]; ethanol): 100%

stability constant log βCaL ([3]; potentiometric titration, 25.0° C., μ=0.1 M KCl): 8.5 (5)
Compound: O=C([O-])c1cccc(CN(CCN(Cc2cccc(C(=O)O)n2)Cc2cccc(C(=O)O)n2)Cc2cccc(C(=O)[O-])n2)n1.[Ca+2] [Catpaen]

Compound: O=C(O)CN(CCN(CC(=O)O)CC(=O)O)CC(=O)O [EDTA, tetra acetic diamine ethylene acid]
pEu, comparison value for EDTA [7]: 14.0

Compound: cresyl violet
Qabs of the standard ([6]; methanol): 54%
